Experimental data reported in ChEMBL document CHEMBL5579807, “Development of STING degrader with double covalent ligands” (Bioorg Med Chem Lett, 2024).
Active and inactive are the calls of the source. No cut-off for these calls is given here.

What was measured:
Assay type in all cases: cell-based
[1] = target: T1, Protein cereblon/Stimulator of interferon genes protein (Homo sapiens) (UniProt Q96SW2+Q86WV6); test: PROTAC activity at CRBN/STING in human THP-1 cells assessed as induction of STING degradation incubated for 24 to 48 hrs by Western blot analysis; conditions: dose 3-30 µM, time 24-48 hrs
T1 sequence (Q86WV6 whole entry, looked up): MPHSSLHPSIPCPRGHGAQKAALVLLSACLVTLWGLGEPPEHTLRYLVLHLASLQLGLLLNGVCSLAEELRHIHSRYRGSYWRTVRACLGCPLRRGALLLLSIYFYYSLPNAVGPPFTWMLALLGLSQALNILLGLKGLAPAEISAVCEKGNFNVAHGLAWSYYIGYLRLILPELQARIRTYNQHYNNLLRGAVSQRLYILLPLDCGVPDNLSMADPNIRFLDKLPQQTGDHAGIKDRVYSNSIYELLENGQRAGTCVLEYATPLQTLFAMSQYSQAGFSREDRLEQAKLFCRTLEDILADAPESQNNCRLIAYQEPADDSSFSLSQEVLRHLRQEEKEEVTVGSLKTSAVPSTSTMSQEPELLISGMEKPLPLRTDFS
T1 sequence (Q96SW2 whole entry, looked up): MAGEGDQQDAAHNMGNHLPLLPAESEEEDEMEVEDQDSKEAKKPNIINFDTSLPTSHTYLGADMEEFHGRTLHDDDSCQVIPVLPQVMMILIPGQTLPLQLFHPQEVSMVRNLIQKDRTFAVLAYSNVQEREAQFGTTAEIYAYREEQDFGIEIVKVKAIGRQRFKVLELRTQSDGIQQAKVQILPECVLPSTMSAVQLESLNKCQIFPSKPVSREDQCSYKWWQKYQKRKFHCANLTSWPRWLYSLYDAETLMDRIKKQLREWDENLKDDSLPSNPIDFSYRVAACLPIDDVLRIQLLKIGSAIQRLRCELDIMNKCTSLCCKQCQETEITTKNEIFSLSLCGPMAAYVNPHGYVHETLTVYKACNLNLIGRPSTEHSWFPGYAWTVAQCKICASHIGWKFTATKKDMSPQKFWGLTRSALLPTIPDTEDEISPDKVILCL

[2] = target: T1, Protein cereblon/Stimulator of interferon genes protein (Homo sapiens); test: PROTAC activity at CRBN/STING in human THP-1 cells assessed as induction of STING degradation at 3 to 30 uM incubated for 6 hrs by Western blot analysis; conditions: dose 3-30 µM
[3] = target: T2, E3 ubiquitin-protein ligase RNF126/Stimulator of interferon genes protein (Homo sapiens) (UniProt Q86WV6+Q9BV68); test: PROTAC activity at RNF126/STING in human THP-1 cells assessed as induction of STING degradation upto 30 uM incubated for 24 hrs by Western blot analysis
T2 sequence (Q86WV6 whole entry, looked up): as the sequence (Q86WV6 whole entry, looked up) above
T2 sequence (Q9BV68 whole entry, looked up): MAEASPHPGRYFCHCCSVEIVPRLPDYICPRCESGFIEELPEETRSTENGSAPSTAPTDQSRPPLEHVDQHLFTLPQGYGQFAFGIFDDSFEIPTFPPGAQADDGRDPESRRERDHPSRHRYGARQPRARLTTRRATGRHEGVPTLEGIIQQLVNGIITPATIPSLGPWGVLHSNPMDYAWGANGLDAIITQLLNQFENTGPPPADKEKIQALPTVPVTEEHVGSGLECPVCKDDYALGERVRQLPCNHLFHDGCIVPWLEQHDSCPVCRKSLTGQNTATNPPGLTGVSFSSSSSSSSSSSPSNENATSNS

[4] = target: T2, E3 ubiquitin-protein ligase RNF126/Stimulator of interferon genes protein (Homo sapiens); test: PROTAC activity at RNF126/STING in human THP-1 cells assessed as induction of STING degradation at 10 uM incubated for 24 hrs by Western blot analysis
[5] = target: T2, E3 ubiquitin-protein ligase RNF126/Stimulator of interferon genes protein (Homo sapiens); test: PROTAC activity at RNF126/STING in human THP-1 cells assessed as induction of STING degradation at 3 to 30 uM incubated for 6 to 48 hrs by Western blot analysis; conditions: dose 3-30 µM, time 6-48 hrs
[6] = target: T2, E3 ubiquitin-protein ligase RNF126/Stimulator of interferon genes protein (Homo sapiens); test: PROTAC activity at RNF126/STING in human THP-1 cells assessed as induction of STING degradation at 3 uM incubated for 18 hrs in the presence of MG132 by Western blot analysis
[7] = target: Stimulator of interferon genes protein (Homo sapiens) (UniProt Q86WV6); test: Inhibtion of STING in 293-Dual hSTING-R232 cells co-expressing interferon beta luciferase reporter assessed as inhibition of interferon response incubated for 16 hrs in presence of cGAMP by luminescence based luciferase gene reporter assay; conditions: dose 1-30 µM
Chain of Stimulator of interferon genes protein (Homo sapiens) (Q86WV6 whole entry): as the sequence (Q86WV6 whole entry, looked up) above

[8] = target: T2, E3 ubiquitin-protein ligase RNF126/Stimulator of interferon genes protein (Homo sapiens); test: PROTAC activity at RNF126/STING in human THP-1 cells assessed as induction of STING degradation at 3 uM incubated for 18 hrs in the presence of MLN7243 by Western blot analysis

With `O=C(/C=C/C(=O)Nc1ccc(NC(=O)c2ccc([N+](=O)[O-])o2)cc1)NCCCCCCNc1cccc2c1C(=O)N(C1CCC(=O)NC1=O)C2=O` (stereo not drawn) the Activity [1] was “Dose-Dependent Effect” and the Activity [2] was “inactive”.

For `COc1ccc(C(=O)/C=C/C(=O)Nc2ccc(NC(=O)c3ccc([N+](=O)[O-])o3)cc2)cc1`, the Activity [3] was “Active”.

In the case of `COc1ccc(C(=O)/C=C/C(=O)N2CCN(c3ccc(NC(=O)c4ccc([N+](=O)[O-])o4)cc3)CC2)cc1`, the Activity [4] is reported as “Active”, the Activity [5] is reported as “Active” and the Activity [6] is reported as “inactive”. For the same compound, the inhibition [7] was “Dose-Dependent Effect” and the Activity [8] was “inactive”.
